The test has as its target T1, OfurPBP2 (Ostrinia furnacalis pheromone binding protein 2) (Ostrinia furnacalis, UniProt E7CCA0).
T1 construct: gene PBP2; full-length OfurPBP2, recombinant soluble (E. coli Origami 2), delipidated, pH 6.5
T1 sequence (E7CCA0 23-166): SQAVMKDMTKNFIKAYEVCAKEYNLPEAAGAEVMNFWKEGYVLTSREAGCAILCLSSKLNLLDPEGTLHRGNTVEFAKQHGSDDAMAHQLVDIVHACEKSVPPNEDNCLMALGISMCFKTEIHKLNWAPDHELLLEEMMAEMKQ
The test can be described thus: fluorescence titration of the NPN probe (emission at […] nm), single-site fit.

The structures appear in SMILES notation.

This note sets out measurements from PMC6244159, “Structure and Function Studies of Asian Corn Borer Ostrinia furnacalis Pheromone Binding Protein2” (Scientific Reports, 2018).

Usually Kd stands for a measure of binding affinity in units of concentration. Regarding `c1ccc(Nc2cccc3ccccc23)cc1` [N-phenyl-1-naphthylamine], the Kd is 6.49 ± 1.01 µM.
